# Test results from article PMC8210147, “Characterization of the MurT/GatD complex in Mycobacterium tuberculosis towards validating a novel anti-tubercular drug target” (JAC-Antimicrobial Resistance, 2021).
# Molecular target: Rv3712 (mycobacterial MurT) (Mycobacterium tuberculosis, UniProt I6Y4C7)
# Sequence (I6Y4C7 entry or part of it): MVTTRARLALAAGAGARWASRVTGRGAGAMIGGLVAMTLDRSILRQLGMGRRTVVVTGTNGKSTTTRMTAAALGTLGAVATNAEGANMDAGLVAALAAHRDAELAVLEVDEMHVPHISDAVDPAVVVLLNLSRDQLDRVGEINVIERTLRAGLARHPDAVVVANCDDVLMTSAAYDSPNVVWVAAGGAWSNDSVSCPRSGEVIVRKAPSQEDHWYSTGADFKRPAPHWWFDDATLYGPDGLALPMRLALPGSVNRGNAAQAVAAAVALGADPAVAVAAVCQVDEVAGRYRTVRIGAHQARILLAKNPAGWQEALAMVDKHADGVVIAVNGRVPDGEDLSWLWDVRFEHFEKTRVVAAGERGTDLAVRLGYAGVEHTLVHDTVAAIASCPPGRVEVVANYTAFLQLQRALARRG
compound,measurement,value
Nc1ncnc2c1ncn2[C@@H]1O[C@H](COP(=O)(O)OP(=O)(O)OP(=O)(O)O)[C@@H](O)[C@H]1O [ATP],"inorganic phosphate release (PiColorLock Gold), 30 min",Rv3712 was found to be an ATPase
